Bridge positions count the residues as written; N and C are the ends. Peptide text beside a SMILES is read from it.
What was measured:
[1] = tested on: intestinal secretion; assay: suckling mouse model of intestinal secretion (SuMi assay); format: in vivo, suckling mice; details: dose response; wild-type ST purchased from TDT; FIG. 5a, 5b
Procedure: In this model a test compound is administered to suckling mice that are between 7 and 9 days old. After the mice are sacrificed, the gastrointestinal tract from the stomach to the cecum is dissected (“guts”). The remains (“carcass”) as well as the guts are weighed and the ratio of guts to carcass weight is calculated. If the ratio is above 0.09, one can conclude that the test compound increases intestinal secretion. […] The effect of Zelnorm® was also studied.

[2] = tested on: response to colorectal distension; assay: partial restraint stress-induced hyperalgesia model; format: in vivo, Wistar rats; details: oral 0.3 and 3.0 μg/kg; distending pressure 15 mm Hg; p<0.0001
Procedure: Five groups of female Wistar rats (weighing 200-250 g each), were surgically prepared for electromyography as described (Morteau et al. 1994 Dig Dis Sci 39:1239-48) and were used to evaluate the effects of SEQ ID NO:3 on colorectal sensitivity and compliance after a 2 hour partial restraint stress session. Partial restraint stress (PRS), a relatively mild stress, was induced as previously described (Morteau et al., 1994 Dig Dis Sci 39:1239-48). Female rats were lightly anesthetized with diethyl ether and their shoulders, upper forelimbs and thoracic trunk were wrapped in a confining harness of paper tape to restrict, but not prevent body movements. Control sham-stress animals were anesthitized but not wrapped. […] Electrical activity was recorded with an electroencephalograph (Mini VIII, Alvar, Paris, France) using a short time constant (0.03 sec.) to remove low-frequency signals (<3 Hz) and a paper speed of 3.6 cm/minute. […] Colonic pressure and balloon volume were continuously monitored on a potentiometric recorder (L6514, Linseis, Selb, Germany) with a paper speed of 1.0 cm/minute. The number of spike bursts, corresponding to abdominal contractions, was evaluated per 5-minute period. Colorectal volumes were determined as the maximal volume obtained for each stage of distension using the potentiometric recorder. […] The values were expressed as mean±SEM.

In the case of `C[C@@H]1NC(=O)[C@@H]2CCCN2C(=O)[C@H](CC(N)=O)NC(=O)[C@@H]2CSSC[C@H](N)C(=O)N[C@H]3CSSC[C@H](NC1=O)C(=O)N[C@@H]([C@@H](C)O)C(=O)NCC(=O)N[C@H](C(=O)N[C@@H](Cc1ccc(O)cc1)C(=O)O)CSSC[C@H](NC(=O)[C@H](Cc1ccc(O)cc1)NC(=O)[C@H](CCC(=O)O)NC3=O)C(=O)N2` [SEQ ID NO:3] (H-CCEYCCNPACTGCY-OH; disulfide 1-6, 2-10, 5-13; N-terminus and C-terminus assumed), the “intestinal secretion (guts to carcass weight ratio)” value [1] is reported as “increase intestinal secretion” and the “response to CRD after partial restraint stress” value [2] is reported as “reduced the response to CRD”.

Reference: patent publication US20090253634A1, “Methods and Compositions for the Treatment of Gastrointestinal Disorders” (MICROBIA, INC., priority 2005, published 2009)
